Like-named read-outs stand apart in the source and are kept apart here.
Key:
Tsukamurella = settings: literature refs 3, 12; cited from earlier work
T. pulmonis-PW1004 [1] = test: Treatment of experimental Tsukamurella keratitis in rabbits
Method: 6.4.4 Development of a rabbit model for Tsukamurella keratitis. Bacterial suspensions used to infect rabbits were prepared by culturing T. pulmonis-PW1004 in BHI for 48 h. Eight male NZW rabbits, 1.5-2.0 kg, were inoculated intrastromally as described previously^37. Corneas of 4 rabbits were injected with approximately 10 μl (i.e., 10^6 CFU) of T. pulmonis-PW1004 using a microliter syringe with a 30 G needle. Another 4 rabbit corneas were challenged with plain culture medium as the control. Rabbits were monitored daily for signs of disease. At 24 h PI, rabbit eyes were photographed, evaluated for pathology, and sacrificed. After euthanasia, the corneas of each rabbit were surgically removed for histopathological and immunohistochemical analyses and bacterial enumeration.
6.4.5 Treatment of experimental Tsukamurella keratitis. Efficacy of the two antibiotics, topical 0.5% Cravit® levofloxacin (Santen Pharmaceutical Company, Japan) and 0.02% PHMB (Lonza, Switzerland), for the treatment of Tsukamurella keratitis were evaluated, respectively. Tsukamurella keratitis was first established in 12 NZW rabbits (n=4 per group) using procedures as described above. Infection was allowed to proceed for 24 h before initiation of antibiotic therapy. These 12 NZW rabbits were divided into 3 topical treatment groups: (1) 0.5% levofloxacin, (2) 0.02% PHMB, and (3) saline. Treatment regimens of levofloxacin and PHMB were performed according to Fiscella et al. and Kowalski et al., respectively, with slight modifications^16,17. For the first group of rabbits treated with levofloxacin (n=4), drops (50 μl) of levofloxacin were applied to the affected eyes hourly for 10 doses over 3 days. For the second group of rabbits treated with PHMB (n=4), drops (50 μl) of PHMB were applied to the affected eyes hourly for 8 doses over 3 days. Rabbits in the third control group (n=4) received the same regimen of sterile saline (0.85% NaCl) hourly for 10 doses over 3 days. In addition to these 3 treatment groups, two extra NZW rabbits without infection were used as controls (i.e., mock-infected and mock-treated rabbits), receiving the same regimen of saline for 3 days. One hour after the final instillation of the antibiotics and saline drops, rabbit eyes were photographed, evaluated for pathology, and sacrificed. The treatment efficacy was compared and evaluated by the quantitative culture and histopathological analysis of the infected corneas.
6.4.6 Quantification of Tsukamurella cells. To quantify the number of viable Tsukamurella in the cornea, the cornea harvested from each rabbit was cut into smaller pieces using a sterile scalpel. The corneal pieces were placed into a sterile tube containing 500 μl of PBS (pH 7.2). Each tissue was homogenized, and homogenates were serially diluted 10-fold in PBS (pH 7.2). One hundred microliters of each diluted sample was plated in triplicate on the BHI agar and incubated at 37° C. under aerobic conditions for 48 h. The number of bacteria was determined and expressed as CFU/cornea.
To examine the histopathology of corneal tissues of rabbits challenged with the PW1004-WT and its derivative mutants, excised infected eyes, including the cornea of challenged rabbits, were subjected to histopathological examination. Corneal tissues harvested from the rabbits were fixed in 10% neutral-buffered formalin, embedded in paraffin, and stained with hematoxylin and eosin (H&E) according to Fischer et al.^39.

T. pulmonis-PW1004 [2] = settings: for Zone of inhibition: 6 mm disk, 48 h, 37° C.
From the text: Disk diffusion assay was initially used to determine the susceptibility of T. pulmonis-PW1004 against various concentrations of PHMB. Briefly, standard paper disks, 6 mm in diameter, impregnated with different dilutions of PHMB (0.0005%, 0.001%, 0.0025%, 0.005%) were placed onto BHI agar plates inoculated with overnight culture of a 0.5 McFarland standard prepared from T. pulmonis-PW1004, following standard procedures^15. Paper disks soaked in 0.85% NaCl were used as the control. Zones of inhibition were measured after 48 h of incubation at 37° C. under aerobic conditions. […] Next, we re-examined the susceptibility of the 4 contact lens solutions against the 7 Tsukamurella species by adjusting the final concentration of PHMB to 0.0025%, following the procedures as described in the previous paragraph.

T. pulmonis-PW1004 [3] = system: T. pulmonis-PW1004
Method: (§1) 6.4.9 In vitro susceptibility of planktonic cultures of Tsukamurella against contact lens and PHMB solutions. A susceptibility test was performed following the procedures as described in FDA/ISO14729 stand-alone procedure for disinfecting products^13. Briefly, 0.1 ml of 1×10^8 CFUs/ml bacterial suspension from 7 different Tsukamurella species was added into 10 ml each of the 4 commercial contact lens solutions, respectively, and the mixture was incubated at room temperature according to the manufacturer's recommended disinfection time (Table 1). After incubation, a 1-ml aliquot was withdrawn from each mixture and added to 9 ml of Dey-Engley neutralizing broth (Sigma, USA) for 15 min at room temperature for neutralization of the preservative. The mixture was then serially diluted, and 100 μl of each diluted sample was plated in triplicate on the BHI agar for sampling of viable bacteria. P. aeruginosa ATCC27853 was used as a control. The mean logarithmic reduction was calculated. According to the guideline, only a contact lens solution capable of reducing the viability of starting concentration of bacteria by 3-log is defined as satisfactory. All experiments were performed in triplicate and repeated 3 times along with the control strain.

T. tyrosinosolvens-PW899 = system: T. tyrosinosolvens-PW899
Method: as §1

[4] = PHMB 0.005% compared with 0.0025%
[5] = 0.02% PHMB topical for 3 days, compared to saline control rabbits

In the case of O=C(N[C@H](CO)[C@H](O)c1ccc([N+](=O)[O-])cc1)C(Cl)Cl [chloramphenicol], the “susceptibility of Tsukamurella to topical antibiotic eye drops” value (Tsukamurella) is given as “generally resistant”.
In the case of C[C@H]1COc2c(N3CCN(C)CC3)c(F)cc3c(=O)c(C(=O)O)cn1c23 [levofloxacin], the “corneal perforation and adverse signs” value (T. pulmonis-PW1004 [1]; rabbit, in vivo) is reported as “corneal perforations with severe discharges accompanied by behavioral abnormalities”.
For polyhexamethylene biguanide [PHMB], the Zone of inhibition (T. pulmonis-PW1004 [2]; PHMB concentration 0.0005%) was 0 mm, the Zone of inhibition (T. pulmonis-PW1004 [2]; PHMB concentration 0.001%) was 0 mm and the Zone of inhibition (T. pulmonis-PW1004 [2]; PHMB concentration 0.0025%) was 13 mm. The Zone of inhibition (T. pulmonis-PW1004 [2]; PHMB concentration 0.005%) was 14 mm, the “minimal concentration that achieved good efficacy” value (T. pulmonis-PW1004 [2]; disk diffusion, preliminary results) was 0.0025% and the log reduction (T. pulmonis-PW1004 [3]; PHMB 0.0005%) was < 3 log. For the same molecule, the log reduction (T. pulmonis-PW1004 [3]; PHMB 0.001%) was < 3 log, the log reduction (T. pulmonis-PW1004 [3]; PHMB 0.0025%) was 3 log and the “further reduction of bacterial numbers” value (T. pulmonis-PW1004 [3]; [4]) was “could not be further reduced”. The log reduction (T. tyrosinosolvens-PW899; PHMB 0.0005%) was < 3 log, the log reduction (T. tyrosinosolvens-PW899; PHMB 0.001%) was < 3 log and the log reduction (T. tyrosinosolvens-PW899; PHMB 0.0025%) was 3 log. For the same molecule, the “further reduction of bacterial numbers” value (T. tyrosinosolvens-PW899; [4]) was “could not be further reduced”, the “PMN infiltration in corneal stroma and epithelium” value (T. pulmonis-PW1004 [1]; [5]) was “less evident” and the “histological examination: stromal edema and capillary formation” value (T. pulmonis-PW1004 [1]; [5]) was “lower degree of stromal edema as well as capillary formation”. The “keratitis symptoms, gross appearance” value (T. pulmonis-PW1004 [1]; [5]) was “keratitis symptoms became less severe”, the “number of bacteria recovered from the cornea” value (T. pulmonis-PW1004 [1]; 0.02% PHMB topical, hourly 8 doses over 3 days, started 24 h PI, P<0.01 vs saline) was 1.05±0.07 log and the corneal perforation (T. pulmonis-PW1004 [1]; 0.02% PHMB topical, whole course of treatment) was “did not observe corneal perforation”. For the same molecule, the “toxicity in rabbit corneal tissues” value (T. pulmonis-PW1004 [1]; PHMB 0.02% topical) was “no toxicity”.

Reference: US12527814B2, “Treatment of an ocular infection, composition and methods thereof” (priority 2019, dated 2026)
